Reference: US20260137703A1, “2-AMINO-PYRIDO[2,3-D]PYRIMIDIN-7(8H)-ONE AND 7-AMINO-1-PYRIMIDO[4,5-D]PYRIMIDIN-2(1 H)-ONE DERIVATIVES AS EGFR INHIBITORS FOR THE TREATMENT OF CANCER” (Cancer Research Technology Limited, priority 2022, published 2026)

Columns and labels:
[1] = target: T1, Phospho-EGFR (Tyr1068) in H1975 cells (Homo sapiens, UniProt P00533, L858R/T790M); assay: HTRF pEGFR/total EGFR in H1975 cells; assay type: cell-based; conditions: ratio pEGFR/total EGFR, compound 3 hours
T1 construct: host or cells: H1975
T1 sequence (P00533 25-1210 T790M/L858R): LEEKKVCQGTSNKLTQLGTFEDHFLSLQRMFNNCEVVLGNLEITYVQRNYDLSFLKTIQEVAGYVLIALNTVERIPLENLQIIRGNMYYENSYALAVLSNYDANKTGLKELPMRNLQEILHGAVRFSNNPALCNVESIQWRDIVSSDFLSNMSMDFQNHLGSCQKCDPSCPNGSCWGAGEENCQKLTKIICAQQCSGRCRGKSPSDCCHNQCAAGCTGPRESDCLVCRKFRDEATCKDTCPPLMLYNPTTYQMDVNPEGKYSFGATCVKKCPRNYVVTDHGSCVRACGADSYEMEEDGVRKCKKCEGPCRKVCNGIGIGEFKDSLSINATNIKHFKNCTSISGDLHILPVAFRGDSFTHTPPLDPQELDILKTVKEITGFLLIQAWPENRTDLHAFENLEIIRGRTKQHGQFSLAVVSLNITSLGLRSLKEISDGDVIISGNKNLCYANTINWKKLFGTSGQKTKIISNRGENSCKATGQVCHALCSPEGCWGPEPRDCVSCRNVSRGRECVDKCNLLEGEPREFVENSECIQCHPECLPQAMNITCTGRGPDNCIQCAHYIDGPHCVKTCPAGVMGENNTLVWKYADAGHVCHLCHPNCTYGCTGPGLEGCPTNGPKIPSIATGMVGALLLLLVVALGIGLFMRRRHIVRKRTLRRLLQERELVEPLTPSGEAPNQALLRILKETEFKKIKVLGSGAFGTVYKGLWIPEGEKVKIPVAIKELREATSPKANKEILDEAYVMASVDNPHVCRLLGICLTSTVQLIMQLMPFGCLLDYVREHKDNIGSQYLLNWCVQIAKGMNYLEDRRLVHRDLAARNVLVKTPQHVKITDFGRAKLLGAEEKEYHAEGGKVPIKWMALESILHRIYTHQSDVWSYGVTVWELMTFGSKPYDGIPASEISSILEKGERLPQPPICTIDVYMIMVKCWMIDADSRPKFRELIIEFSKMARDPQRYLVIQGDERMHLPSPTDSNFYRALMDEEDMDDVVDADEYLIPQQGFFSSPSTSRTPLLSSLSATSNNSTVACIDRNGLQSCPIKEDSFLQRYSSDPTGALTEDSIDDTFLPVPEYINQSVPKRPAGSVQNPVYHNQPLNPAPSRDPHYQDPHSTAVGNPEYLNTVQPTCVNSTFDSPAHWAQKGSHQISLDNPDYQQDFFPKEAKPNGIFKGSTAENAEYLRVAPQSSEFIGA
Outline: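 H1975 cells (EGFR L858R/T790M) treated 3 h with compound in 0.1% DMSO, in duplicate, 24 h after plating. Lysates assayed by HTRF for pEGFR (Tyr1068) and total EGFR at 665/620 nm; values are pEGFR/total EGFR ratio as percent of 0 μM control.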

[2] = target: T2, Phospho-EGFR (Tyr1068) in H1975 C797S cells (CRISPR-edited EGFR C797S) (Homo sapiens, UniProt P00533, C797S/L858R/T790M); assay: HTRF pEGFR/total EGFR in H1975 C797S cells; assay type: cell-based; conditions: ratio pEGFR/total EGFR, compound 3 hours
T2 construct: host or cells: H1975 C797S (CRISPR-edited)
T2 sequence (P00533 25-1210 T790M/C797S/L858R): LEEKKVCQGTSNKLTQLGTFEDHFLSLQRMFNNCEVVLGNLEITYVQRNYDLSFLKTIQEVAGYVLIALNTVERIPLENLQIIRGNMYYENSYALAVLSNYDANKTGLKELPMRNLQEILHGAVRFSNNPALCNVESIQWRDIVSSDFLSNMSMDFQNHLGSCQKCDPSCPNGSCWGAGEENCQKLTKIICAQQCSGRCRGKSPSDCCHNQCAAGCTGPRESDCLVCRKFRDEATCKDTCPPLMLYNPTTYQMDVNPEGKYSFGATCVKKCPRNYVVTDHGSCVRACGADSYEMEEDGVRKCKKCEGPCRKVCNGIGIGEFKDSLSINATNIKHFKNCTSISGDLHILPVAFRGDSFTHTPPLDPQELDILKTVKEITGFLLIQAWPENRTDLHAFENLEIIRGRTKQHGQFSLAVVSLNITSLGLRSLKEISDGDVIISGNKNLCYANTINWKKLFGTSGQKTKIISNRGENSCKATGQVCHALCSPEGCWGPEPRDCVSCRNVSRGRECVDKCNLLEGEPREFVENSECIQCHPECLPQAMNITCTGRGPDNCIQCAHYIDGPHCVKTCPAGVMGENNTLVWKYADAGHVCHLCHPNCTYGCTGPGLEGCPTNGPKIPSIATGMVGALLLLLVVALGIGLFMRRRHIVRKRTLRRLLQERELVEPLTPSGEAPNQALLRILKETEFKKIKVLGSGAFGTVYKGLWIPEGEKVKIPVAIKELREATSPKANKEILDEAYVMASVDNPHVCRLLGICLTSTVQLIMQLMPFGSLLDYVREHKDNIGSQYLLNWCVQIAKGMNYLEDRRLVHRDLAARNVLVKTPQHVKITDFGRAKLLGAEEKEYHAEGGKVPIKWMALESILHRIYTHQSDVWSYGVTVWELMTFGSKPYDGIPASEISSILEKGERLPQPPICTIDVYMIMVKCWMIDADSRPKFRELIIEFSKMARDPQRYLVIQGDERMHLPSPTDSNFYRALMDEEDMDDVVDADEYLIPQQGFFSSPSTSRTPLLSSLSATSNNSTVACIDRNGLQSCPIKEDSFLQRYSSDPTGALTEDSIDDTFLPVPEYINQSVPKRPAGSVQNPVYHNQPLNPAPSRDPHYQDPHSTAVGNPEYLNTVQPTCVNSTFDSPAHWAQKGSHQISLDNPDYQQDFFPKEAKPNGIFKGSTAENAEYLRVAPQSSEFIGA
Outline: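 Adhered H1975 C797S cells got compound for 3 h in duplicate at 0.1% DMSO final, then were lysed 30 min at room temperature. HTRF kits quantified phospho-EGFR (Tyr1068) and total EGFR (665/620 nm); results are pEGFR/total EGFR ratio as percent of 0 μM control.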

[3] = target: T3, Phospho-EGFR (Tyr1068) in A431 cells (Homo sapiens, UniProt P00533); assay: HTRF pEGFR/total EGFR in A431 cells with EGF stimulation; assay type: cell-based; conditions: ratio pEGFR/total EGFR, compound 2.5 hours then 100 ng/ml EGF 30 mins
T3 construct: endogenous in cells; host or cells: A431
T3 sequence (P00533 25-1210): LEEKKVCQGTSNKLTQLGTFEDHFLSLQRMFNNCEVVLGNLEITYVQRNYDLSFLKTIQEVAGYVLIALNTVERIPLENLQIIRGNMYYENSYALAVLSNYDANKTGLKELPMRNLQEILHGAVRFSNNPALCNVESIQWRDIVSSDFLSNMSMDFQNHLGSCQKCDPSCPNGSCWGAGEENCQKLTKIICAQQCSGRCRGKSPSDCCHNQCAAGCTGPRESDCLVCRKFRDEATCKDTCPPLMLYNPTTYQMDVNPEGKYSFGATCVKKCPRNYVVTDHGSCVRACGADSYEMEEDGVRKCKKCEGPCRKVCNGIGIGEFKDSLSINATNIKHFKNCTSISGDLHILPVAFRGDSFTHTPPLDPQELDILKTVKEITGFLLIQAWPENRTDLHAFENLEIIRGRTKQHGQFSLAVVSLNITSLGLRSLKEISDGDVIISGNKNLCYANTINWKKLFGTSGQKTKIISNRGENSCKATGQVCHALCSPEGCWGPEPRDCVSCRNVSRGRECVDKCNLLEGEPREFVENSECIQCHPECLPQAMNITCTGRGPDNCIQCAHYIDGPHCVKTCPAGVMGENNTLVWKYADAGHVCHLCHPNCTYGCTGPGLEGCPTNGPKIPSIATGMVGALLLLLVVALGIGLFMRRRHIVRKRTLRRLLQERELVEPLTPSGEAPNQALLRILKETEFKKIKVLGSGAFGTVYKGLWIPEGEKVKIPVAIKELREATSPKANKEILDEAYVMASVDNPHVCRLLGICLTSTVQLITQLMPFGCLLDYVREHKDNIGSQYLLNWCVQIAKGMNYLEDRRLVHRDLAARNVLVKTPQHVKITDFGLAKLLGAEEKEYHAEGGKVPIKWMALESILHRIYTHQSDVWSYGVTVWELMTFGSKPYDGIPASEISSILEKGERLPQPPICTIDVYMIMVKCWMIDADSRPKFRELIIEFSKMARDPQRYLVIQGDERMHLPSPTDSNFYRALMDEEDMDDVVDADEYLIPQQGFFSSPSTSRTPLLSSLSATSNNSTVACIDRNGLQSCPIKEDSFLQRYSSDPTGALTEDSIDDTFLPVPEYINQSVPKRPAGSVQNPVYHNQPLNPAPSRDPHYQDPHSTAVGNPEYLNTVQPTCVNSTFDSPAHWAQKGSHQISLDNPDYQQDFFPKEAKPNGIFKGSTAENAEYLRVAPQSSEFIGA
Outline: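 A431 cells were plated at 20,000 per well, allowed 24 h to adhere, then given compound for 2.5 h (0.1% DMSO final). They were then stimulated with 100 ng/ml EGF for 30 min and lysed. HTRF measured Tyr1068-phospho and total EGFR at 665/620 nm, with pEGFR/total EGFR expressed as % of the 0 μM control.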

[4] = target: CtermHisTag-mEGFR Wild type (Homo sapiens, UniProt P00533); assay: biochemical
Chain of CtermHisTag-mEGFR Wild type (P00533 whole entry): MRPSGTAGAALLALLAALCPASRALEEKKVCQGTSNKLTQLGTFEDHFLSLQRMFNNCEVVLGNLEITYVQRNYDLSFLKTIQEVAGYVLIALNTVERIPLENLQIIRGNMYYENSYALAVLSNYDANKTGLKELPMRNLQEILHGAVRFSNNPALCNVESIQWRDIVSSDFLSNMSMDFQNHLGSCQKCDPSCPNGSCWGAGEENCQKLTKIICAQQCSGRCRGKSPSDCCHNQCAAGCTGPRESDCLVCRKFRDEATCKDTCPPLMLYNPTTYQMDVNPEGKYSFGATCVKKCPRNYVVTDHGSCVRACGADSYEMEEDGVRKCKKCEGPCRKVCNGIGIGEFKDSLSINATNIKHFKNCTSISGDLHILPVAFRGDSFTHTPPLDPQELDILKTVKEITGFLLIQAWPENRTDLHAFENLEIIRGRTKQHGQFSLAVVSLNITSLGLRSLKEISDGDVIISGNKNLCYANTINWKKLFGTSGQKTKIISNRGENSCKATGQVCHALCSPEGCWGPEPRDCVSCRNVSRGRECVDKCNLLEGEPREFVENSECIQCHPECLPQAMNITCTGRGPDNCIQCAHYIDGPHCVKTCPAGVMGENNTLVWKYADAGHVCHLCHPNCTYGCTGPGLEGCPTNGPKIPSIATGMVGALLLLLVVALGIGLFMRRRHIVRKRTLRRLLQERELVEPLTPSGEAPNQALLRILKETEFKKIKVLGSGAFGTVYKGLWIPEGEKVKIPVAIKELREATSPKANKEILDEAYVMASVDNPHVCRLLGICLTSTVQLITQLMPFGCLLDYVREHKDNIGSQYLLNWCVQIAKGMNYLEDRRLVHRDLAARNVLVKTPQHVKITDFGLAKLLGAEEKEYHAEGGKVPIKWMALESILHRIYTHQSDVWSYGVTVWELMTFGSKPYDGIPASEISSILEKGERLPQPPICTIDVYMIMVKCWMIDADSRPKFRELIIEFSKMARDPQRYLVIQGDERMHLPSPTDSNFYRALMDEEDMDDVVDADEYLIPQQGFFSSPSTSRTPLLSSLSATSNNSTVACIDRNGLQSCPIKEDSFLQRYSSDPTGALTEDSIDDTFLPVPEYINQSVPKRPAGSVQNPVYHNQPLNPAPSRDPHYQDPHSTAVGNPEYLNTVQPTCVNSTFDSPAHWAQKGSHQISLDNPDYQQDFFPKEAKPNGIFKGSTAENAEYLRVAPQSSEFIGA

Structure (SMILES)	IC50 [1] [nM]	IC50 [2] [nM]	IC50 [3] [nM]	IC50 [4] [nM]
C#Cc1cc(=O)n(C)c2nc(Nc3ccc(N4CCN(C)CC4)cc3OC)ncc12 [Example 49, 5-Ethynyl-2-{[2-methoxy-4-(4-methylpiperazin-1-yl)phenyl]amino}-8-methylpyrido[2,3-d]pyrimidin-7-one]	< 500	500 to 1000	> 3000	< 1000
C#Cc1cc(=O)n2c3nc(ncc13)Nc1ccc(N3CCN(C)CC3)c(c1)CNCCC2 [Example 199, 1^5-Ethynyl-3^4-(4-methylpiperazin-1-yl)-1^7,1^8-dihydro-2,5-diaza-1(2,8)-pyrido[2,3-d]pyrimidina-3(1,3)-benzenacyclooctaphan-1^7-one]	> 3000	> 3000	> 3000	> 10000
C#Cc1cc(=O)n([C@H]2CC[C@@H](NC(=O)CC(=O)O)CC2)c2nc(Nc3ccc(N4CCN(C)CC4)cc3)ncc12 [Example 99, 2-{[(1s,4s)-4-(5-Ethynyl-2-{[4-(4-methylpiperazin-1-yl)phenyl]amino}-7-oxopyrido[2,3-d]pyrimidin-8-yl)cyclohexyl]carbamoyl}acetic acid]	1000 to 3000	> 3000	> 3000	< 1000
C#Cc1c(-c2cc(F)ccc2Cl)c(=O)n(C)c2nc(Nc3ccc(N(C)CCN(C)C)cc3)ncc12 [Example 137, 6-(2-chloro-5-fluorophenyl)-2-[(4-{[2-(dimethylamino)ethyl](methyl)amino}phenyl)amino]-5-ethynyl-8-methylpyrido[2,3-d]pyrimidin-7-one]	500 to 1000	< 500	1000 to 3000	< 1000
C#Cc1cc(=O)[nH]c2nc(Nc3ccc(N4CCN(C)CC4)c(CNC(=O)C=C)c3)ncc12 [Example 201]	< 500	500 to 1000	> 3000	< 1000
C#Cc1cc(=O)n2c3nc(ncc13)Nc1ccc(N3CCN(C)CC3)c(c1)OCCCCC2C (stereo not shown) [Example 228, 1^5-Ethynyl-9-methyl-3^4-(4-methylpiperazin-1-yl)-1^7,1^8-dihydro-4-oxa-2-aza-1(2,8)-pyrido[2,3-d]pyrimidina-3(1,3)-benzenacyclononaphan-17-one]	< 500	< 500	> 3000	1000 to 10000
C#Cc1c(C)c(=O)n(Cc2ccccn2)c2nc(Nc3ccc(N4CCN(C)CC4)cc3)ncc12 [Example 178, 5-Ethynyl-6-methyl-2-{[4-(4-methylpiperazin-1-yl)phenyl]amino}-8-(pyridin-2-ylmethyl)pyrido[2,3-d]pyrimidin-7-one]	500 to 1000	500 to 1000	> 3000	< 1000
C#Cc1cc(=O)n(C2CCNC2)c2nc(Nc3ccc(N4CCN(C)CC4)cc3)ncc12 (stereo not shown) [Example 106, 5-ethynyl-2-{[4-(4-methylpiperazin-1-yl)phenyl]amino}-8-(pyrrolidin-3-yl)pyrido[2,3-]pyrimidin-7-one]	1000 to 3000	1000 to 3000	> 3000	> 10000
C#Cc1c(C2CC2)c(=O)n(C)c2nc(Nc3ccc(N4CCN(C)CC4)cc3)ncc12 [Example 148, 6-cyclopropyl-5-ethynyl-8-methyl-2-{[4-(4-methylpiperazin-1-yl)phenyl]amino}pyrido[2,3-d]pyrimidin-7-one]	> 3000	> 3000	> 3000	> 10000
C#Cc1cc(=O)n(-c2ccc(NC(=O)C3CC3)cc2)c2nc(Nc3ccccc3OC)ncc12 [Example 66, N-(4-(5-Ethynyl-2-((2-methoxyphenyl)amino)-7-oxopyrido[2,3-d]pyrimidin-8(7H)-yl)phenyl)cyclopropanecarboxamide]	> 3000	> 3000	> 3000	1000 to 10000
